# Publication PMC5554537 (Frontiers in Pharmacology, 2017)
# Read-outs that look alike come from different tables or passages of the source.
# Assays:
# [1] = Plasma, liver and brain PK after i.p. dosing with M14; format: in vivo; settings: i.p. M14 135 mg/kg; for half-life: read-out: Terminal T1/2
# Method: Concentration-time data were analyzed by non-compartmental analysis using Phoenix WinNonlin (ver 6.4, Build 6.4.0768 Pharsight, United States); all AUC values were extrapolated to infinity using the linear trapezoidal rule. A compartmental model for plasma PK after dosing with SN30000 or M14 was fitted using Phoenix NLME v1.3 with random effects on the metabolite volumes of distribution, and temperature effects based on the observed body temperature at the last measurement time. Temperature effects were added or removed until there was no significant change in the log likelihood. Model fits were further assessed by visual inspection of the residuals and predicted PK.
# [2] = biological target: T1, mouse brain acetylcholinesterase (Mus musculus, UniProt P21836); assay: biochemical; settings: for IC50: mouse brain homogenate, 37°C
# T1 construct: from tissue; host or cells: mouse brain homogenate
# T1 sequence (P21836 32-614): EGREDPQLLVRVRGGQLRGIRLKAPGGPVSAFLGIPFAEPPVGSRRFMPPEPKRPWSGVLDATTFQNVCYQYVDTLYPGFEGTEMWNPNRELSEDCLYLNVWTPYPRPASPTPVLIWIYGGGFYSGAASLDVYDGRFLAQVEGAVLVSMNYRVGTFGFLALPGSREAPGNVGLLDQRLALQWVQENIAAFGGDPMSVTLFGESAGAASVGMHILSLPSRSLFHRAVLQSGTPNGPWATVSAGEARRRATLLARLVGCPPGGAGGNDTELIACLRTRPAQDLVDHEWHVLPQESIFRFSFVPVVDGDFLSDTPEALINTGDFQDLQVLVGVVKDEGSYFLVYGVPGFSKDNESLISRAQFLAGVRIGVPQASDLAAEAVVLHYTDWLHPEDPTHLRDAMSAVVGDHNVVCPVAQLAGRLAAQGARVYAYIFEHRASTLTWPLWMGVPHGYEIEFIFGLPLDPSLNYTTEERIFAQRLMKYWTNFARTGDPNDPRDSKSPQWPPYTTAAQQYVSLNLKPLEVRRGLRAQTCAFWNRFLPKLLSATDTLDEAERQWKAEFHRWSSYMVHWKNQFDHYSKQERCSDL
# Method: TABLE 10: Inhibition of mouse brain acetylcholinesterase activitya by SN30000 and related compounds […]
# aThe acetylcholinesterase inhibition assay is based on Obregon et al., 2005. Mouse brain homogenate was prepared in potassium phosphate buffer (100 mM, pH 7.4), which was pre-incubated with dithiobisnitrobenzoate (final concentration 1 mM) at 37°C for 10 min. After adding acetylthiocholine (final concentration 0.6 mM), the formation of 5-thio-2-nitrobenzoate was measured by monitoring absorbance (Spectramax- M2 spectrophotometer) at 412 nm every 30 s for 10 min. Negative controls (DMSO or saline) and positive control […]
# IC50 values are based on 3-4 deter minations per compound.
# [3] = i.p. SN30000 186 mg/kg
# Method: M18 was quantified by absorbance detection with reference to an external standard calibration curve.
# Concentration-time data were analyzed by non-compartmental analysis using Phoenix WinNonlin (ver 6.4, Build 6.4.0768 Pharsight, United States); all AUC values were extrapolated to infinity using the linear trapezoidal rule.
# SN30000, M14 and M13 were quantified by LC-MS/MS using stable isotope internal standards, while M18 was quantified by absorbance detection using external standard calibration curves.
# [4] = Stability in mouse plasma (QC samples); format: physicochemical
# Source text: using octa-deuterated internal standards of SN30000, M13 and M14 synthesised as previously reported (Wang et al., 2012). Intra- and inter-day precision (expressed as relative standard deviation (RSD) and accuracy (expressed as percentage of the nominal value) were deter mined by analy sis of replicates (n=6) of low and high quality control (QC) samples on three different days. The lower limit of quantitation (LLOQ) was defined as the lowest concentration providing RSD and accuracy < 20%. Recovery from plasma and liver ho mogenates was tested at the three QC levels. The recoveries were evaluated by comparing extracted samples with blank extracted solutions spiked with analytes of the same amount.
# Matrix effects, defined as the change in response due to the presence of other substances in the samples, were evaluated by comparing the analytes diluted into the blank plasma or liver extracted solution with that of the same stock solutions diluted in water. Three different concentration levels (low, medium and high QC) were evaluated by analysing three samples at each level. Accuracy , precision, recovery and matrix effects were all acceptable over the concentration ranges evaluated for plas ma (Supplementary Table 1) and for liver homogenates (Supplementary Table 2).
# Stability of the analytes in mouse plasma (Supplementary Table 3) or liver homogenate (Supplementary Table 4) was confirmed during holding of QC samples on ice for up to 2 h under nor mal laboratory lighting, although there was a trend towards loss of SN30000 in plasma samples held in clear microcentrifuge tubes which may reflect the known photosensitivity of the compound (Gu et al., 2014). This loss was reduced by use of red microcentrifuge tubes, and eliminated by black tubes. Stability in both matrices was also confir med for one month storage at -80°C and for three freeze-thaw cycles, while MeOH-deproteinised samples w ere stable for 12 h at 4°C in the autosampler (Supplementary Tables
# [5] = HT29 tumour, tumour-bearing mice
# [6] = liver, HT29 tumour-bearing mice
# [7] = plasma, HT29 tumour-bearing mice
# [8] = plasma, non-tumour-bearing mice
# [9] = plasma deproteinised in 3 vol MeOH, 12 h autosampler at 4°C, nominal SN30000 0.5, M14 0.25, M13 0.1 µM
# [10] = plasma deproteinised in 3 vol MeOH, 12 h autosampler at 4°C, nominal SN30000 5, M14 2.5, M13 1 µM
# [11] = plasma deproteinised in 3 vol MeOH, 12 h autosampler at 4°C, nominal SN30000 50, M14 25, M13 10 µM
# [12] = plasma, 1 month at -80°C, nominal SN30000 5, M14 2.5, M13 1 µM
# [13] = plasma, 1 month at -80°C, nominal SN30000 50, M14 25, M13 10 µM
# [14] = plasma, 1 h on ice, black vial, nominal SN30000 0.5, M14 0.25, M13 0.1 µM
# [15] = plasma, 1 h on ice, black vial, nominal SN30000 5, M14 2.5, M13 1 µM
# [16] = plasma, 1 h on ice, black vial, nominal SN30000 50, M14 25, M13 10 µM
# [17] = plasma, 1 h on ice, clear vial, nominal SN30000 0.5, M14 0.25, M13 0.1 µM
# [18] = plasma, 1 h on ice, clear vial, nominal SN30000 5, M14 2.5, M13 1 µM
# [19] = plasma, 1 h on ice, clear vial, nominal SN30000 50, M14 25, M13 10 µM
# [20] = plasma, 1 h on ice, red vial, nominal SN30000 0.5, M14 0.25, M13 0.1 µM
# [21] = plasma, 1 h on ice, red vial, nominal SN30000 5, M14 2.5, M13 1 µM
# [22] = plasma, 1 h on ice, red vial, nominal SN30000 50, M14 25, M13 10 µM
# [23] = plasma, 2 h on ice, black vial, nominal SN30000 0.5, M14 0.25, M13 0.1 µM
# [24] = plasma, 2 h on ice, black vial, nominal SN30000 5, M14 2.5, M13 1 µM
# [25] = plasma, 2 h on ice, black vial, nominal SN30000 50, M14 25, M13 10 µM
# [26] = plasma, 2 h on ice, clear vial, nominal SN30000 0.5, M14 0.25, M13 0.1 µM
# [27] = plasma, 2 h on ice, clear vial, nominal SN30000 5, M14 2.5, M13 1 µM
# [28] = plasma, 2 h on ice, clear vial, nominal SN30000 50, M14 25, M13 10 µM
# [29] = plasma, 2 h on ice, red vial, nominal SN30000 0.5, M14 0.25, M13 0.1 µM
# [30] = plasma, 2 h on ice, red vial, nominal SN30000 5, M14 2.5, M13 1 µM
# [31] = plasma, 2 h on ice, red vial, nominal SN30000 50, M14 25, M13 10 µM
# [32] = plasma, three freeze-thaw cycles, nominal SN30000 0.5, M14 0.25, M13 0.1 µM
# [33] = plasma, three freeze-thaw cycles, nominal SN30000 5, M14 2.5, M13 1 µM
# [34] = plasma, three freeze-thaw cycles, nominal SN30000 50, M14 25, M13 10 µM
smiles,measurement,setting,value
O=C(O)CCc1nc2cc3c(cc2[n+]([O-])n1)CCC3 [M18],half-life,"[1]; NIH-III nude, mouse, in vivo, ip, 135 mg/kg, liver",144 min
same,Cmax,"[1]; NIH-III nude, mouse, in vivo, ip, 135 mg/kg, plasma, read-out: Cmax",144 ± 5.3 µM
same,half-life,"[1]; NIH-III nude, mouse, in vivo, ip, 135 mg/kg, plasma",182 min
same,Detection in brain,[1],undetectable in brain
same,AUC,[1]; liver,93.3 µmol·h/kg
same,Cmax,[1]; liver,40.0 ± 3.0 µmol/kg
same,AUC,[1]; plasma,349 µmol·h/kg
same,Inhibition at 300 μM,"[2]; mouse brain acetylcholinesterase, 300 μM",no inhibition
same,IC50,[2],> 300 µM
same,Detection in brain,[3],not detected in brain
same,Plasma concentration reached,[3]; negligible elimination up to 3 h,> 100 µM
same,AUC 0-3hr,[3]; HT29 tumour,34.8 µmol·h/kg
same,Cmax,[3]; [5],17.6 µmol/kg
same,AUC 0-3hr,[3]; [6],92 µmol·h/kg
same,Cmax,[3]; [6],46.1 ± 5.2 µmol/kg
same,AUC 0-3hr,"[3]; liver, non-tumour-bearing mice",107 µmol·h/kg
same,Cmax,"[3]; liver, non-tumour-bearing mice",53.5 ± 4.0 µmol/kg
same,AUC 0-3hr,[3]; [7],322 µmol·h/kg
same,AUC 0-3hr,[3]; [8],349 µmol·h/kg
"[O-][n+]1nc(CCCN2CCOCC2)[n+]([O-])c2cc3c(cc21)CCC3 [SN30000, 3-(3-Morpholinopropyl)-7,8-dihydro-6H-indeno[5,6-e][1,2,4]triazine 1,4-dioxide]",IC50,[2],131 µM
same,Bias,[4]; [9],-0.12%
same,Measured conc,[4]; [9],0.50 µM
same,Bias,[4]; [10],-0.22%
same,Measured conc,[4]; [10],4.99 µM
same,Bias,[4]; [11],7.93%
same,Measured conc,[4]; [11],53.97 µM
same,Measured conc,"[4]; plasma, 1 month at -80°C, nominal SN30000 0.5, M14 0.25, M13 0.1 µM",0.48 µM
same,Bias,[4]; [12],1.44%
same,Measured conc,[4]; [12],4.92 µM
same,Bias,[4]; [13],2.04%
same,Measured conc,[4]; [13],53.90 µM
same,Bias,[4]; [14],-0.80%
same,Measured conc,[4]; [14],0.50 µM
same,Bias,[4]; [15],-7.17%
same,Measured conc,[4]; [15],4.64 µM
same,Bias,[4]; [16],5.03%
same,Measured conc,[4]; [16],52.5 µM
same,Bias,[4]; [17],-7.83%
same,Measured conc,[4]; [17],0.46 µM
same,Bias,[4]; [18],-7.91%
same,Measured conc,[4]; [18],4.60 µM
same,Bias,[4]; [19],-7.21%
same,Measured conc,[4]; [19],46.39 µM
same,Bias,[4]; [20],-3.33%
same,Measured conc,[4]; [20],0.48 µM
same,Bias,[4]; [21],-7.29%
same,Measured conc,[4]; [21],4.64 µM
same,Bias,[4]; [22],-4.85%
same,Measured conc,[4]; [22],47.57 µM
same,Bias,[4]; [23],1.31%
same,Measured conc,[4]; [23],0.51 µM
same,Bias,[4]; [24],0.11%
same,Measured conc,[4]; [24],5.01 µM
same,Bias,[4]; [25],2.32%
same,Measured conc,[4]; [25],51.16 µM
same,Bias,[4]; [26],-14.4%
same,Measured conc,[4]; [26],0.43 µM
same,Bias,[4]; [27],-12.3%
same,Measured conc,[4]; [27],4.38 µM
same,Bias,[4]; [28],-14.9%
same,Measured conc,[4]; [28],42.53 µM
same,Bias,[4]; [29],-10.09%
same,Measured conc,[4]; [29],0.45 µM
same,Bias,[4]; [30],-12.57%
same,Measured conc,[4]; [30],4.37 µM
same,Bias,[4]; [31],-8.13%
same,Measured conc,[4]; [31],45.94 µM
same,Bias,[4]; [32],0.56%
same,Measured conc,[4]; [32],0.50 µM
same,Bias,[4]; [33],-2.87%
same,Measured conc,[4]; [33],4.86 µM
same,Bias,[4]; [34],6.72%
same,Measured conc,[4]; [34],53.36 µM
same,AUC (extrapolated to infinity),[3]; [5],111 µmol·h/kg
same,Cmax,[3]; [5],69.9 ± 12.1 µmol/kg
same,AUC (extrapolated to infinity),"[3]; brain, non-tumour-bearing mice",158 µmol·h/kg
same,Cmax,"[3]; brain, non-tumour-bearing mice",217 ± 12 µmol/kg
same,AUC (extrapolated to infinity),[3]; [6],164 µmol·h/kg
same,Cmax,[3]; [6],172 ± 8 µmol/kg
same,AUC (extrapolated to infinity),"[3]; liver, non-tumour-bearing mice",147 µmol·h/kg
same,Cmax,"[3]; liver, non-tumour-bearing mice",164 ± 38 µmol/kg
same,AUC (extrapolated to infinity),[3]; [7],159 µmol·h/kg
same,AUC (extrapolated to infinity),[3]; [8],156 µmol·h/kg
